The values that follow come from patent US7091202B2, “4-arylspirocycloalkyl-2-aminopyrimidine carboxamide KCNQ potassium channel modulators” (Bristol-Myers Squibb Company, priority 2004, dated 2006).

What is called EC50 is the midpoint of the concentration-response curve. A low value points to higher potency in that assay.

This assay addresses T1, hQ23 (HEK-293 cell line stably transfected with one of the members of the KCNQ family) (Homo sapiens, UniProt O43525+O43526).
T1 construct: expressed in transfected cells; host or cells: HEK-293, stably transfected
The assay is described as follows: Thallium flux assay for KCNQ channel blockers (FLIPR, BTC dye). It is filed as cell-based. The essentials:
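HEK-293 cells stably expressing a KCNQ member, loaded with BTC-AM (2 μM) in chloride-free buffer, pH 7.3; compounds added at 1% DMSO, then Tl2SO4 stimulus on FLIPR (488/540 nm, 60 s). Minimal active concentration set at ≥4 SD above negative control; IC50 from 10-point 1:3 series, single-site logistic fit versus the positive-control blocker.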

[1] abbreviates: hQ23 cells, thallium flux assay.

T1 sequence (O43526 whole entry): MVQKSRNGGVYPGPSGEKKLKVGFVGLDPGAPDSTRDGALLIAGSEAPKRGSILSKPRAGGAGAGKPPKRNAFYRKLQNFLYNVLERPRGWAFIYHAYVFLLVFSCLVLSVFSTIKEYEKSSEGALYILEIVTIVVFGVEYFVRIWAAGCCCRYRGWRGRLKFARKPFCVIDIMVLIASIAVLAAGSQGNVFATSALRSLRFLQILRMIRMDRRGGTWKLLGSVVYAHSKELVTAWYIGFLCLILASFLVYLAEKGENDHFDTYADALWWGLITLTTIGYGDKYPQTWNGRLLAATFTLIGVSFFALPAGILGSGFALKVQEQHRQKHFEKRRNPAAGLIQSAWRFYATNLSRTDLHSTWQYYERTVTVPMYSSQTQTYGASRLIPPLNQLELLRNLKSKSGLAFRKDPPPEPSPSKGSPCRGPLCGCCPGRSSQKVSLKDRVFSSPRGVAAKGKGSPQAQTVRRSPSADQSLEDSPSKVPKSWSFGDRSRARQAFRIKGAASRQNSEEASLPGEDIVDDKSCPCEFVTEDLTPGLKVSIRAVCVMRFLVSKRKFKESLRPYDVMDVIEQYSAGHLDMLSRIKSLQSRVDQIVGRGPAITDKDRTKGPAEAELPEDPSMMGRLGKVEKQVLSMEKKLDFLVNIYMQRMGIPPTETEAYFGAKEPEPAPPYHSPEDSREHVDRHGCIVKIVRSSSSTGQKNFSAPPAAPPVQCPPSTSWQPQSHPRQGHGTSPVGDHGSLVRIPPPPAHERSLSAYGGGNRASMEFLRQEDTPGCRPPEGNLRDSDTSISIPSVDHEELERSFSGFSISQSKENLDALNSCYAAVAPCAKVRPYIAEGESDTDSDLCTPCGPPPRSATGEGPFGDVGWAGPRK
T1 sequence (O43525 whole entry): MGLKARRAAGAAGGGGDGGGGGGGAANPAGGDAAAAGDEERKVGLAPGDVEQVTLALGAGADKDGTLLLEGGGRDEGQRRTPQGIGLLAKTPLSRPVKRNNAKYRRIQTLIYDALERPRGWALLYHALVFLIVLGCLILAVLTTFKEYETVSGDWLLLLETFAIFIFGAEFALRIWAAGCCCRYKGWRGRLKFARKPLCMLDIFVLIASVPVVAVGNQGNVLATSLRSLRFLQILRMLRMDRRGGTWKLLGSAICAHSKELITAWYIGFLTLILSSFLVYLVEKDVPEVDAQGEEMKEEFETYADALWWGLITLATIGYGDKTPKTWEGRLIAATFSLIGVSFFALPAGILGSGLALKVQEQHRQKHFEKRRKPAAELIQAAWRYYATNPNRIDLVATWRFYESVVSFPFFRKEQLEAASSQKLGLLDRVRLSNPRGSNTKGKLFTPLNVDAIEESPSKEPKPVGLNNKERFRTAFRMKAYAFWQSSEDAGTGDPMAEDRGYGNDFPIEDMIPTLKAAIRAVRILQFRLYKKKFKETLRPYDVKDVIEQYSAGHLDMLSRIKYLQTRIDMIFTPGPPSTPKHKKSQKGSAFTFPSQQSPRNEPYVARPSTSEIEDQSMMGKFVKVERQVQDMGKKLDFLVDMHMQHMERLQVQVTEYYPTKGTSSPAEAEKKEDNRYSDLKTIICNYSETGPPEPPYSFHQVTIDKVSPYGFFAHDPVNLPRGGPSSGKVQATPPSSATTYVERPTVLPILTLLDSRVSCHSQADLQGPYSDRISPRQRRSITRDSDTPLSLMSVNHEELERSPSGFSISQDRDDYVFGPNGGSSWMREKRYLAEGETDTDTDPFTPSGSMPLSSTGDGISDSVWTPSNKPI

`CC1CCN(c2ncc(C(=O)NCc3ccc(Cl)c(Cl)c3)c(C3(c4ccc(F)cc4)CCCC3)n2)CC1` [Example 256, 5-pyrimidinecarboxamide, N-[(3,4-dichlorophenyl)methyl]-4-[1-(4-fluorophenyl)cyclopentyl]-2-(4-methyl-1-piperidinyl)-] came in with an EC50 under setting [1] of 10 nM.

For `O=C(NCc1ccc(Cl)cc1Cl)c1cnc(NC2CC2)nc1C1(c2ccc(F)cc2)CCCC1` [Example 259, 5-pyrimidinecarboxamide, 2-(cyclopropylamino)-N-[(2,4-dichlorophenyl)methyl]-4-[1-(4-fluorophenyl)cyclopentyl]-], the EC50 under setting [1] was 869 nM.

As to `CCC(C)Nc1ncc(C(=O)NCc2ccc3c(c2)OCO3)c(C2(c3ccc(Cl)cc3)CCCC2)n1` (centres unmarked) [Example 155, 5-pyrimidinecarboxamide, N-(1,3-benzodioxol-5-ylmethyl)-4-[1-(4-chlorophenyl)cyclopentyl]-2-[(1-methylpropyl)amino]-], the EC50 (hQ23 cells, thallium flux) was 337 nM.

Take `O=C(NCc1cc(F)cc(C(F)(F)F)c1)c1cnc(NC2CC2)nc1C1(c2ccccc2)CCCC1` [Example 122, 5-pyrimidinecarboxamide, 2-(cyclopropylamino)-N-[[3-fluoro-5-(trifluoromethyl)phenyl]methyl]-4-(1-phenylcyclopentyl)-]: a half-maximal response (hQ23 cells, thallium flux) (EC50) required 10 nM.

As to `O=C(NCc1ccc2c(c1)OCO2)c1cnc(NC2CCCC2)nc1C1(c2ccc(Cl)cc2)CCCC1` [Example 156, 5-pyrimidinecarboxamide, N-(1,3-benzodioxol-5-ylmethyl)-4-[1-(4-chlorophenyl)cyclopentyl]-2-(cyclopentylamino)-], under “hQ23 cells, thallium flux”, the EC50 came out at 70 nM.

The compound `CN(C)CCNc1ncc(C(=O)NCc2ccc(F)cc2F)c(C2(c3ccc(F)cc3)CCCC2)n1` [Example 272, 5-pyrimidinecarboxamide, N-[(2,4-difluorophenyl)methyl]-2-[[2-(dimethylamino)ethyl]amino]-4-[1-(4-fluorophenyl)cyclopentyl]-] registered an EC50 under setting [1] of 967 nM.

As to `CN(CCc1ccccc1)C(=O)c1cnc(NC2CCCC2)nc1C1(c2ccc(Cl)cc2)CCCC1` [Example 148, 5-pyrimidinecarboxamide, 4-[1-(4-chlorophenyl)cyclopentyl]-2-(cyclopentylamino)-N-methyl-N-(2-phenylethyl)-], the concentration giving a half-maximal response (EC50) (hQ23 cells, thallium flux) is 597 nM.

As for `O=C(c1cnc(NC2CCCC2)nc1C1(c2ccccc2)CCCC1)N1CCc2ccccc2C1` [Example 75, isoquinoline, 2-[[2-(cyclopentylamino)-4-(1-phenylcyclopentyl)-5-pyrimidinyl]carbonyl]-1,2,3,4-tetrahydro-], the midpoint of the response (hQ23 cells, thallium flux), the EC50, lay at 950 nM.

Take `CC(NC(=O)c1cnc(N2CCN(C)CC2)nc1C1(c2ccccc2)CCCC1)c1ccc(F)cc1` (centres unmarked) [Example 133, 5-pyrimidinecarboxamide, N-[1-(4-fluorophenyl)ethyl]-2-(4-methyl-1-piperazinyl)-4-(1-phenylcyclopentyl)-]: the midpoint of the response (hQ23 cells, thallium flux), the EC50, lay at 442 nM.

Compound `CC(NC(=O)c1cnc(N2CCCC2)nc1C1(c2ccccc2)CCCC1)c1cccc2ccccc12` (centres unmarked) [Example 96, 5-pyrimidinecarboxamide, N-[1-(1-naphthalenyl)ethyl]-4-(1-phenylcyclopentyl)-2-(1-pyrrolidinyl)-] displayed an EC50 (hQ23 cells, thallium flux) of 148 nM.

`O=C(NCc1ccc2c(c1)OCO2)c1cnc(NC2CC2)nc1C1(c2ccccc2)CCCC1` [Example 89, 5-pyrimidinecarboxamide, N-(1,3-benzodioxol-5-ylmethyl)-2-(cyclopropylamino)-4-(1-phenylcyclopentyl)-]: the 50% effective concentration (EC50) (hQ23 cells, thallium flux) stood at 692 nM.

With `O=C(NCc1cccc2ccccc12)c1cnc(N2CCCC2)nc1C1(c2ccc(F)cc2)CCCC1` [Example 249, 5-pyrimidinecarboxamide, 4-[1-(4-fluorophenyl)cyclopentyl]-N-(1-naphthalenylmethyl)-2-(1-pyrrolidinyl)-], under setting [1], the half-maximal effective concentration (EC50) came out at 278 nM.

Take `CC1CCCN(c2ncc(C(=O)NCc3ccc(Cl)c(Cl)c3)c(C3(c4ccccc4)CCCC3)n2)C1` (centres unmarked) [Example 107, 5-pyrimidinecarboxamide, N-[(3,4-dichlorophenyl)methyl]-2-(3-methyl-1-piperidinyl)-4-(1-phenylcyclopentyl)-]: the EC50 (hQ23 cells, thallium flux) worked out at 111 nM.

Under “Table 2, thallium flux, HEK-293”, `CCN(Cc1ccccc1)C(=O)c1cnc(N2CCC(C)CC2)nc1C1(c2ccccc2)CC1` [Example 31, 5-pyrimidinecarboxamide, N-ethyl-2-(4-methyl-1-piperidinyl)-4-(1-phenylcyclopropyl)-N-(phenylmethyl)-] returned an EC50 of 475 nM.

`CC1CCC(Nc2ncc(C(=O)NCc3ccc4c(c3)OCO4)c(C3(c4ccc(Cl)cc4)CCCC3)n2)CC1` (centres unmarked) [Example 151, 5-pyrimidinecarboxamide, N-(1,3-benzodioxol-5-ylmethyl)-4-[1-(4-chlorophenyl)cyclopentyl]-2-[(4-methylcyclohexyl)amino]-] displayed a half-maximal effective concentration (EC50) (hQ23 cells, thallium flux) of 119 nM.

For the setting “hQ23 cells, thallium flux”, `CC(NC(=O)c1cnc(N2CCCC2)nc1C1(c2ccc(Cl)cc2)CCCC1)c1cccc2ccccc12` (centres unmarked) [Example 158, 5-pyrimidinecarboxamide, 4-[1-(4-chlorophenyl)cyclopentyl]-N-[1-(1-naphthalenyl)ethyl]-2-(1-pyrrolidinyl)-] had an EC50 of 40 nM.

Compound `CCC(C)Nc1ncc(C(=O)NCc2cccc3ccccc23)c(C2(c3ccc(Cl)cc3)CCCC2)n1` (centres unmarked) [Example 171, 5-pyrimidinecarboxamide, 4-[1-(4-chlorophenyl)cyclopentyl]-2-[(1-methylpropyl)amino]-N-(1-naphthalenylmethyl)-] displayed an EC50 (hQ23 cells, thallium flux) of 158 nM.

The compound `CC(NC(=O)c1cnc(N2CCN(C)CC2)nc1C1(c2ccc(F)cc2)CCCC1)c1cccc2ccccc12` (centres unmarked) [Example 243, 5-pyrimidinecarboxamide, 4-[1-(4-fluorophenyl)cyclopentyl]-2-(4-methyl-1-piperazinyl)-N-[1-(1-naphthalenyl)ethyl]-] had an EC50 under setting [1] of 852 nM.

As for `CC1CCN(c2ncc(C(=O)NC(C)c3ccc(F)cc3)c(C3(c4ccccc4)CCCC3)n2)CC1` (centres unmarked) [Example 134, 5-pyrimidinecarboxamide, N-[1-(4-fluorophenyl)ethyl]-2-(4-methyl-1-piperidinyl)-4-(1-phenylcyclopentyl)-], the EC50 (hQ23 cells, thallium flux) is 98 nM.

Where the note is “Table 3, thallium flux, HEK-293”, `CC1CCCN(c2ncc(C(=O)NCc3cc(F)cc(C(F)(F)F)c3)c(C3(c4ccc(Cl)cc4)CCC3)n2)C1` (centres unmarked) [Example 66, 5-pyrimidinecarboxamide, 4-[1-(4-chlorophenyl)cyclobutyl]-N-[[3-fluoro-5-(trifluoromethyl)phenyl]methyl]-2-(3-methyl-1-piperidinyl)-] yielded an EC50 of 10 nM.

For the setting “hQ23 cells, thallium flux”, `CCC(C)Nc1ncc(C(=O)NC(C)c2ccc(F)cc2)c(C2(c3ccccc3)CCCC2)n1` (centres unmarked) [Example 135, 5-pyrimidinecarboxamide, N-[1-(4-fluorophenyl)ethyl]-2-[(1-methylpropyl)amino]-4-(1-phenylcyclopentyl)-] registered a half-maximal effective concentration (EC50) of 29 nM.

Take `CC(NC(=O)c1cnc(N2CCCC2)nc1C1(c2ccc(F)cc2)CCCC1)c1cccc2ccccc12` (centres unmarked) [Example 242, 5-pyrimidinecarboxamide, 4-[1-(4-fluorophenyl)cyclopentyl]-N-[1-(1-naphthalenyl)ethyl]-2-(1-pyrrolidinyl)-]: the concentration giving a half-maximal response (EC50) under setting [1] worked out at 34 nM.

In the case of `CC(NC(=O)c1cnc(NC2CCCC2)nc1C1(c2ccc(Cl)cc2)CCCC1)c1cccc2ccccc12` (centres unmarked) [Example 164, 5-pyrimidinecarboxamide, 4-[1-(4-chlorophenyl)cyclopentyl]-2-(cyclopentylamino)-N-[1-(1-naphthalenyl)ethyl]-], it took 10 nM to reach a half-maximal effect (hQ23 cells, thallium flux) (EC50).
